Results as given in patent US8188091B2, “Tetrahydroquinazoline compounds and their use in preparing medicaments for treating and preventing virosis” (Beijing Molecule Science and Technology Co., Ltd., priority 2007, dated 2012).
Where two headings read alike, the source gives them in different places.

Key:
[1] = Determination of the cytotoxicity in HepG 2.2.15 cells (microscopy, Reed & Muench); format: cell-based; details: human, pathological changes at 8 days, read-out: TC50 (half-maximum toxic concentration)
Procedure: (§1) The antiviral assays were carried out in 96-well microtitre plates. Only growth medium and HepG 2.2.15 cells were added to the first vertical row of the plate, as a blank control.
(§2) Stock solutions of the test compounds (50 mM) were initially dissolved in DMSO, and further dilutions were prepared in the growth medium of HepG 2.2.15 cell. The compounds according to the present invention, usually in a test concentration of 100 μg/ml (1st test concentration), were pipetted into each well in the second vertical test row of the microtitre plate and subsequently diluted by 2 times each time, up to 2^10-fold, using the growth medium plus 2% of foetal calf serum (volume 25 p. 1).
(§3) 225 μl of a HepG 2.2.15 cell suspension (5×10^4 cells/ml) in the growth medium plus 2% foetal calf serum were then added to each well of the microtitre plate.
(§4) The assay mixture was incubated at 37° C., 5% CO2 for 4 days. The supernatant was subsequently siphoned off and discarded, and 225 μl of freshly prepared growth medium were added to each well. Once more, the compounds according to the present invention were added, in a volume 25 μl of solution. The mixtures were incubated for another 4 days.
Before the supernatants were harvested for determining the antiviral effect, the HepG 2.2.15 cells were examined by an optical microscopy or by biochemical detecting methods (for example Alamar Blue staining or Trypan Blue staining) for cytotoxic changes.
Determination of the Cytotoxicity
Substances-induced cytotoxic or cytostatic changes in the HepG 2.2.15 cells can be determined by for example a optical microscopy and expressed as changes in the cell morphology. Such substance-induced changes, for example, as cell lysis, vacuolization or changed cell morphology in the HepG 2.2.15 cells was apparent in comparison with those in untreated cells. The pathological changes were observed under a microscope at 8 days as indice, wherein a complete destroy being designated as 4, 75% as 3, 50% as 2, 25% as 1, and no pathological change as 0. The average degree of pathological change and inhibition percentages at various concentrations were calculated, and a half-maximum toxic concentration (TC50) and a maximum non-toxic concentration TC0 were determined according to Reed & Muench methods.
TC50 means the concentration of the compounds according to the present invention at which 50% of the cells have a morphology which is similar to that of the corresponding cell control.

HBV DNA = experiment: Antiviral activity: inhibition of HBV DNA in supernatant of HepG 2.2.15 cells (dot blot hybridization); format: cell-based, hepatitis B virus (HBV); details: for IC50: Hepatitis B virus, HepG2.2.15, 192 h, read-out: IC50 (inhibition of the compounds on HBV DNA); for SI: selectivity index, TC50/IC50, HepG 2.2.15 cells
Procedure: The antiviral effects of the compounds according to the present invention was determined following the methods described by Sells et al. (M. A. Sells, M. L. Chen, g. Acs, Proc. Natl. Acad. Sci., 1987, 84, 1005-1009) and Korba et al., (B. E. Korba, J. L. Gerin, Antiviral Research, 1992, 19. 55-70).
as §1, §2, §3, §4
The supernatants were subsequently harvested and siphoned onto in vacuum 96-well dot blot chambers covered with a nylon membrane (in accordance with the instructions of the manufacturer).
Determination of the Antiviral Activity
After transfer of the supernatants onto the nylon membrane of the blot apparatus (see above), the supernatants of the HepG 2.2.15 cells were denatured (1.5 M NaCl/0.5 M NaOH), neutralized (3 M […]/0.5 M Tris HCl, pH 7.5) and washed (2×SSC). The DNA was subsequently baked onto the membrane By incubation of the filters at 120° C. for 2-4 hours.
The viral DNA of the treated HepG 2.2.15 cells on the nylon filter membrane was usually detected using non-radioactive digoxigenin-labelled hepatitis B-specific DNA probes, which were in each case labelled with digoxigenin, purified and used for hybridization in accordance with the instructions of the manufacturer.
Briefly speaking, the prehybridization and hybridization were carried out in 5×SSC, 1× a blocking agent, 0.1% N-lauroylsacosine, 0.02% SDS and 100 μg of DNA from herring sperm. The prehybridization was carried out at 60° C. for 30 minutes and the specific hybridization was carried out using 20 to 40 ng/ml of the digoxigenated denatured HBV-specific DNA (14 hours, 60° C.). The filler membrane was subsequently washed and the antibody against digoxigenin of HBV DNA was determined.
The digoxigenin-labelled DNA was detected immunologically in accordance with the instructions of the manufacturer.
Briefly speaking, the filler membranes were washed and prehybridized in the blocking agent (in accordance with the instructions of the manufacturer), and then hybridized for 30 minutes using an anti-DIG antibody previously coupled to an alkaline phosphatase. After washing, a substrate of alkaline phosphoesterase, CSPD, was added, incubated with the filter for 5 minutes, subsequently wrapped in a plastic film and incubated at 37° C. for a further 15 minutes. The chemiluminescene signals of the Hepatitis B-specific DNA were measured by exposition of the filters on an X-ray film (incubating for 10 minutes to 2 hours, depending on strength of the signals). The half-maximum inhibitory concentration (IC50) was determined.
The half-maximum inhibitory concentration (IC50) means the concentration of the compound according to the present invention at which the hepatitis B-specific band was reduced by 50% in comparison with an untreated sample.

[2] = Solubility of the hydrochloride solid in solvents; format: physicochemical
Procedure: 0.38 g of the object compound obtained in Example 1 was dissolved in 2 ml anhydrous ethanol, to which hydrogen chloride ethyl solution was added dropwise to precipitate a solid, and filtered to obtain an off-white powdery solid 0.41 g, mp 197-199° C.

[3] = HepG 2.2.15 cells, 8 days treatment

SMILES | melting point | CC50 at 8 days [1] | IC50 (HBV DNA; [3]) | SI (HBV DNA) | solubility in dichloromethane, ethyl acetate, acetone, etc. ([2]; dichloromethane, ethyl acetate, acetone, etc.) | solubility in methanol and ethanol ([2]; methanol and ethanol) | solubility in water ([2]; water) | IC50 (HBV DNA)
CC1(C)CC(=O)C2=C(C1)NC(c1cccnc1)=NC2c1ccc(F)cc1Cl (stereo not shown) [Example 1, 2-(pyridin-3-yl)-4-(2-chloro-4-fluorophenyl)-7,7-dimethyl-4,6,7,8-tetrahydroquinazolin-5(1H)-one] | 186 to 187 °C | 109 µM | 0.026 µM | 4192 |  |  |  | 
CC1(C)CC(=O)C2=C(C1)NC(c1cccnc1)=NC2c1ccc(F)cc1Cl.Cl (stereo not shown) [Example 2, 2-(pyridin-3-yl)-4-(2-chloro-4-fluorophenyl)-7,7-dimethyl-4,6,7,8-tetrahydroquinazolin-5(1H)-one hydrochloride] |  |  |  |  | insoluble | soluble slightly | very easily soluable | 
O=C1CCCC2=C1C(c1ccc(F)cc1Cl)N=C(c1cccnc1)N2 (stereo not shown) [Example 3, 2-(pyridin-3-yl)-4-(2-chloro-4-fluorophenyl)-4,6,7,8-tetrahydroquinazolin-5(1H)-one] |  | 233 µM | 25.2 µM | 9.25 |  |  |  | 
CC1(C)CC(=O)C2=C(C1)NC(c1cccnc1)=NC2c1ccc(F)cc1 (stereo not shown) [Example 4, 2-(pyridin-3-yl)-4-(4-fluorophenyl)-7,7-dimethyl-4,6,7,8-tetrahydroquinazolin-5(1H)-one] |  | 145 µM | 25.3 µM | 5.73 |  |  |  | 
CC1(C)CC(=O)C2=C(C1)NC(c1cccnc1)=NC2c1ccccc1 (stereo not shown) [Example 5, 2-(pyridin-3-yl)-4-phenyl-7,7-dimethyl-4,6,7,8-tetrahydroquinazolin-5(1H)-one] |  | 173 µM | 22.5 µM | 7.70 |  |  |  | 
O=C1CCCC2=C1C(c1ccccc1)N=C(c1cccnc1)N2 (stereo not shown) [Example 6, 2-(pyridin-3-yl)-4-phenyl-4,6,7,8-tetrahydroquinazolin-5(1H)-one] |  | 193 µM |  | <4.7 |  |  |  | > 32.9 µM
CC1(C)CC(=O)C2=C(C1)NC(c1cccnc1)=NC2c1ccccc1Cl (stereo not shown) [Example 7, 2-(pyridin-3-yl)-4-(2-chlorophenyl)-7,7-dimethyl-4,6,7,8-tetrahydroquinazolin-5(1H)-one] |  | 67.3 µM | 26.2 µM | 2.57 |  |  |  | 
O=C1CCCC2=C1C(c1ccc(F)cc1)N=C(c1cccnc1)N2 (stereo not shown) [Example 8, 2-(pyridin-3-yl)-4-(4-fluorophenyl)-4,6,7,8-tetrahydroquinazolin-5(1H)-one] |  | 148 µM | > 31.1 µM | <4.7 |  |  |  | 
O=C1CCCC2=C1C(c1ccccc1Cl)N=C(c1cccnc1)N2 (stereo not shown) [Example 9, 2-(pyridin-3-yl)-4-(2-chlorophenyl)-4,6,7,8-tetrahydroquinazolin-5(1H)-one] |  | 167 µM | > 29.6 µM | <5.6 |  |  |  | 
O=C1CCCC2=C1C(c1ccc(F)cc1Cl)N=C(c1c(F)cc(F)cc1F)N2 (stereo not shown) [Example 10, 2-(2,4,6-trifluorophenyl)-4-(2-chloro-4-fluorophenyl)-4,6,7,8-tetrahydroquinazolin-5(1H)-one] |  | 94.1 µM | > 24.4 µM | <3.8 |  |  |  | 
CC1(C)CC(=O)C2=C(C1)NC(c1c(F)cc(F)cc1F)=NC2c1ccc(F)cc1Cl (stereo not shown) [Example 11, 2-(2,4,6-trifluorophenyl)-4-(2-chloro-4-fluorophenyl)-7,7-dimethyl-4,6,7,8-tetrahydroquinazolin-5(1H)-one] |  | 73.7 µM | > 22.9 µM | <3.2 |  |  |  | 
CC1(C)CC(=O)C2=C(C1)NC(c1ccccn1)=NC2c1ccc(F)cc1Cl (stereo not shown) [Example 12, 2-(pyridin-2-yl)-4-(2-chloro-4-fluorophenyl)-7,7-dimethyl-4,6,7,8-tetrahydroquinazolin-5(1H)-one] |  | 97 µM | > 26 µM | <3.7 |  |  |  | 
